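Cultured in 96-well plates, cells were exposed to test compound for 48 hours across five concentrations. Here, GI50 denotes the concentration required for 50% inhibition of growth.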 Active and inactive are the calls of the source. Cut-off read from the data, not from the text of the source: active = GI50 up to about 1.1 µM and inactive = higher. Where a SMILES comes first, the peptide text is derived from it. The star is where a group is joined. Boc = CC(C)(C)OC(=O)*
Legend:
Assay in all cases: NCI tumour cell line growth inhibition, 48 h
BT-549 = test system: BT-549
DU-145 = test system: DU-145
HCT-116 = test system: HCT-116
HOP-62 = test system: HOP-62
K562 = test system: K562
KM12 = test system: KM12
MOLT-4 = test system: MOLT-4
NCI-H23 = test system: NCI-H23
NCI-H460 = test system: NCI-H460
NCI-H522 = test system: NCI-H522
NCI/ADR-RES = test system: NCI/ADR-RES
OVCAR-5 = test system: OVCAR-5
RPMI-8226 = test system: RPMI-8226
SF-268 = test system: SF-268
SF-539 = test system: SF-539
SK-OV-3 = test system: SK-OV-3
SN12C = test system: SN12C
SNB-75 = test system: SNB-75
U-251 = test system: U-251
UACC-257 = test system: UACC-257

Row | SMILES | GI50 (BT-549) | GI50 (DU-145) | GI50 (HCT-116) | GI50 (HOP-62) | GI50 (K562) | GI50 (KM12) | GI50 (MOLT-4) | GI50 (NCI-H23) | GI50 (NCI-H460) | GI50 (NCI-H522) | GI50 (NCI/ADR-RES) | GI50 (OVCAR-5) | GI50 (RPMI-8226) | GI50 (SF-268) | GI50 (SF-539) | GI50 (SK-OV-3) | GI50 (SN12C) | GI50 (SNB-75) | GI50 (U-251) | GI50 (UACC-257)
1 | Cc1ccc(S(=O)(=O)c2ccc([N+](=O)[O-])o2)cc1 | 2.51 µM (inactive) | 3.66 µM (inactive) | 1.64 µM (inactive) | 17.7 µM (inactive) | 1.23 µM (inactive) | 4.43 µM (inactive) | 0.337 µM (active) | 3.52 µM (inactive) | 14.1 µM (inactive) | 0.185 µM (active) | 2.25 µM (inactive) | 2.01 µM (inactive) | 1.65 µM (inactive) | 11.1 µM (inactive) | 1.91 µM (inactive) | 18.7 µM (inactive) | 7.73 µM (inactive) | 5.25 µM (inactive) | 5.48 µM (inactive) | 1.87 µM (inactive)
2 | N#Cc1c(N2CCN(c3ccc([N+](=O)[O-])cc3)CC2)[n+]([O-])c2ccc(Cl)cc2[n+]1[O-] | 0.264 µM (active) | 2.16 µM (inactive) | 0.427 µM (active) | 0.521 µM (active) | 0.231 µM (active) | 1.7 µM (inactive) | 1.18 µM (inactive) | 1.71 µM (inactive) | 0.0644 µM (active) | 0.721 µM (active) | 1.07 µM (active) | 3.4 µM (inactive) | 0.705 µM (active) | 1.86 µM (inactive) | 1.15 µM (inactive) | 1.78 µM (inactive) | 0.966 µM (active) | 2.36 µM (inactive) | 0.738 µM (active) | 2.65 µM (inactive)
3 | CCCCCCSc1nc(COC(=O)NC)c(COC(=O)NC)n1C | > 100 µM (inactive) | > 100 µM (inactive) | > 100 µM (inactive) | > 100 µM (inactive) | > 100 µM (inactive) | > 100 µM (inactive) | > 100 µM (inactive) | > 100 µM (inactive) | > 100 µM (inactive) | > 100 µM (inactive) | > 100 µM (inactive) | > 100 µM (inactive) | > 100 µM (inactive) | > 100 µM (inactive) | > 100 µM (inactive) | > 100 µM (inactive) | > 100 µM (inactive) | > 100 µM (inactive) | > 100 µM (inactive) | > 100 µM (inactive)
4 | C=C1[C@H](OC(=O)C(C)C)[C@@H](OC(C)=O)[C@@H](OC(C)=O)C(C)(C)[C@@H]2O[C@H]2[C@@H](C)C(=O)[C@@]2(OC(C)=O)C[C@@](C)(OC(C)=O)[C@H](OC(C)=O)[C@@H]2[C@H]1OC(C)=O | > 100 µM (inactive) | > 100 µM (inactive) | > 100 µM (inactive) | > 100 µM (inactive) | > 100 µM (inactive) | > 100 µM (inactive) | > 100 µM (inactive) | > 100 µM (inactive) | > 100 µM (inactive) | > 100 µM (inactive) | > 100 µM (inactive) | > 100 µM (inactive) | > 100 µM (inactive) | > 100 µM (inactive) | > 100 µM (inactive) | > 100 µM (inactive) | > 100 µM (inactive) | 0.69 µM (active) | > 100 µM (inactive) | > 100 µM (inactive)
5 | Clc1ccc(-c2nc3cc(C45CC6CC(CC(C6)C4)C5)ccc3[nH]2)cc1 | 56.6 µM (inactive) | 54 µM (inactive) | 22.5 µM (inactive) | 37.8 µM (inactive) | < 0.01 µM (active) | 13.1 µM (inactive) | 0.551 µM (active) | 52.4 µM (inactive) | 17.6 µM (inactive) | 19.2 µM (inactive) | 20.5 µM (inactive) | > 100 µM (inactive) | 4.21 µM (inactive) | > 100 µM (inactive) | 51.6 µM (inactive) | > 100 µM (inactive) | 50.5 µM (inactive) | > 100 µM (inactive) | 20.1 µM (inactive) | 10.7 µM (inactive)
6 | C(/Cc1ccc2c(c1)OCO2)=N\N=C1NCCCCN1 | > 100 µM (inactive) | > 100 µM (inactive) | 64.7 µM (inactive) | 55.8 µM (inactive) | 41.9 µM (inactive) | 88.3 µM (inactive) | 48.4 µM (inactive) | > 100 µM (inactive) | 45.8 µM (inactive) | > 100 µM (inactive) | > 100 µM (inactive) | 34.7 µM (inactive) | 48.4 µM (inactive) | > 100 µM (inactive) | > 100 µM (inactive) | 27.9 µM (inactive) | 73.6 µM (inactive) | 44.8 µM (inactive) | 86.3 µM (inactive) | > 100 µM (inactive)
7 | Cc1c(Cc2ccccc2)n(C(C)OCCN(OC(=O)Oc2ccccc2)C(=O)Oc2ccccc2)c(=O)[nH]c1=O (stereo not given) | 17.1 µM (inactive) | 28.5 µM (inactive) | 20.5 µM (inactive) | 18.1 µM (inactive) | 26.9 µM (inactive) | 15.8 µM (inactive) | 14.5 µM (inactive) | 16.3 µM (inactive) | 17.8 µM (inactive) | 14.5 µM (inactive) | 16.9 µM (inactive) | 17.2 µM (inactive) | 24.2 µM (inactive) | 14.7 µM (inactive) | 19.1 µM (inactive) | 17.4 µM (inactive) | 19.8 µM (inactive) | 1.61 µM (inactive) | 19 µM (inactive) | 15 µM (inactive)
8 | COC(=O)C1CC2(C)C=CC1N(C(=O)OCc1ccccc1)C2 (stereo not given) | 54.1 µM (inactive) | > 100 µM (inactive) | 40.8 µM (inactive) | > 100 µM (inactive) | 49.7 µM (inactive) | 52.1 µM (inactive) | 31.6 µM (inactive) | 59.3 µM (inactive) | > 100 µM (inactive) | 30.6 µM (inactive) | 41.3 µM (inactive) | > 100 µM (inactive) | 48 µM (inactive) | > 100 µM (inactive) | > 100 µM (inactive) | 27.7 µM (inactive) | > 100 µM (inactive) | 28.5 µM (inactive) | 58.1 µM (inactive) | 65.3 µM (inactive)
9 | COC(=O)CNC(=O)C(Cc1ccccc1)NC(=O)C(CCSC)NC(=O)C(Cc1ccc(O)cc1)NC(=O)OC(C)(C)C (stereo not given) (Boc-YMFG-OMe; configuration not given here) | 35.3 µM (inactive) | > 100 µM (inactive) | 54.3 µM (inactive) | 31.5 µM (inactive) | 49.8 µM (inactive) | > 100 µM (inactive) | 17.5 µM (inactive) | 56.1 µM (inactive) | > 100 µM (inactive) | 19.4 µM (inactive) | > 100 µM (inactive) | > 100 µM (inactive) | 22.3 µM (inactive) | 29.7 µM (inactive) | > 100 µM (inactive) | > 100 µM (inactive) | 45.3 µM (inactive) | > 100 µM (inactive) | 41.6 µM (inactive) | 19.1 µM (inactive)
10 | O=c1[nH]c(=O)n([C@H]2C[C@H](O)[C@@H](CO)O2)cc1Br [BROXURIDINE] | > 100 µM (inactive) | > 100 µM (inactive) | > 94 µM (inactive) | > 100 µM (inactive) | > 72.4 µM (inactive) | > 100 µM (inactive) | > 100 µM (inactive) | > 100 µM (inactive) | > 100 µM (inactive) | > 78.3 µM (inactive) | > 100 µM (inactive) | > 100 µM (inactive) | 49.9 µM (inactive) | > 100 µM (inactive) | > 100 µM (inactive) | > 100 µM (inactive) | > 100 µM (inactive) | > 100 µM (inactive) | > 100 µM (inactive) | > 100 µM (inactive)
11 | O=C(O)CC(CC(=O)O)C(=O)O [TRICARBALLYLIC ACID] | > 100 µM (inactive) | > 100 µM (inactive) | > 100 µM (inactive) | > 100 µM (inactive) | > 100 µM (inactive) | > 100 µM (inactive) | > 100 µM (inactive) | > 100 µM (inactive) | > 100 µM (inactive) | > 100 µM (inactive) | > 100 µM (inactive) | > 100 µM (inactive) | > 100 µM (inactive) | > 100 µM (inactive) | > 100 µM (inactive) | > 100 µM (inactive) | > 100 µM (inactive) | > 100 µM (inactive) | > 100 µM (inactive) | > 100 µM (inactive)
